{"source": "patent US20240067625A1", "about": "“SMALL-MOLECULE MODULATORS OF THE ORPHAN NUCLEAR RECEPTOR TLX” (priority 2020, published 2024)", "key": {"[1]": {"molecular_target": "TLX LBD (Homo sapiens (Human), UniProt Q9Y466)", "sequence (Q9Y466 155-383)": "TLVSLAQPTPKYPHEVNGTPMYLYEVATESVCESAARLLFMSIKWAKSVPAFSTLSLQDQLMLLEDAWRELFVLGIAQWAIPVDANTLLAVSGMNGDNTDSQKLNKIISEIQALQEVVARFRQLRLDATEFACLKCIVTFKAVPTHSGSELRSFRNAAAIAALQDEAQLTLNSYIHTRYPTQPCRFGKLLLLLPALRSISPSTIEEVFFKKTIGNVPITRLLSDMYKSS", "assay": "ALPHA screen assay for TLX LBD and coactivator peptide recruitment", "type": "biochemical", "settings": "for Normalized fold increase at 200 μM: Table 2; for EC50 / Average ALPHA signal at 200 μM (std. dev.): Table 3; for Average ALPHA signal at 200 μM (std. dev.): mean (std. dev.)", "experimental": "Assays were performed according to the manufacturer's protocol (PerkinElmer, USA), with the following modifications: Ligands were tested for TLX-coactivator binding in 50 mM phosphate buffer, 150 mM NaCl, pH 7, 1 mM DTT and 100 μM CHAPS. Ligands were dissolved and diluted in DMSO as stocks and were prepared in assay buffer from the original stock in the 100% DMSO and added to the assay plate. Biotinylated SRC peptide and polyhistidine tagged TLX LBD were diluted in assay buffer, subsequently added to respective ALPHA beads, under low light. The plates were spun down, mixed with a shaker and incubated for 120 minutes and read on a TECAN Plate reader using the manufacturer's protocol."}, "[2]": {"tested_on": "neural stem and progenitor cells in the adult hippocampal neurogenic niche", "assay": "In vivo neurogenesis study: neural stem cell proliferation (CldU) after oral dosing", "parameters": "species or system C57BL/6J mice", "settings": "3 mg/kg oral gavage daily for 5 days; CldU labelling; FIG. 11", "quoted_text": "Small Molecule Oral Gavage Delivery and Chloro-Deoxyuridine (CldU) Injections. Small molecule candidates (3 mg/kg of animal) were delivered through oral gavage to animals (N=3-4) each day at the same time for 5 consecutive days. On the final day, animals received four consecutive IP injections of CldU (85 mg/kg dissolved in sterile saline) 2 hr apart.\nImmunohistochemistry. Animals were anesthetized and perfused transcardially with 30 ml of phosphate buffered saline (PBS) followed by 30 ml of 4% (w/v) ice cold paraformaldehyde (PFA) in PBS. Brains were post fixed in 4% PFA solution overnight at 4° C. PFA was replaced with PBS and tissues were kept at 4° C. for further use. Free floating serial sagittal sections of 50 μm thickness were cut using Vibratome 1500 sectioning system and collected in 5 parallel sets each containing 14 sections 250 μm apart from each other. […] Following initial permeabilization and blocking at room temperature (RT) for 2 hrs, sections were incubated with primary antibodies overnight at 4° C. Sections were then washed three times and incubated with fluorochrome-conjugated secondary antibodies for 2 hrs at RT. Sections were washed three times with PBS and mounted on slides with DakoCytomation Fluorescent Mounting Medium (DakoCytomation, Carpinteria, CA) as anti-fading agent.\nSections were counterstained with DAPI (5 μg/mL, Sigma) at 1:1000.\nConfocal microscopy and stereology. Quantification and characterization of proliferating cell types was performed according to previously described optical dissector methods. […] An observer blind to experimental groups counted immunoreactive cells that had the mentioned properties below in every fifth sagittal section throughout the dentate gyrus. Neural stem cells were identified according to their triangular Sox2^+ nuclei located in SGZ with a GFAP^+ radial process spanning through granule cell layer.\nFor quantification that required analysis of phenotypic morphology and/or overlapping markers, 20 μm thick sections were scanned with confocal microscope (Zeiss LSM 710). 3D reconstruction and orthogonal views were acquired via ZEN2012 SP1 software (Zeiss, Thornwood, NY). Cells in the uppermost focal plane were excluded from the quantification. Total counts from 14 sections were multiplied by 10 to get the total number of cells in two dentate gyri. The ratio of CldU^+ cells among a certain cell type was calculated by dividing the CldU^+ cells by the total number of cells in that cell type.\nStatistics. Statistical analysis was performed using GraphPad Prism 8.0 (GraphPad RRID:SCR_002798). Experiments involving 2 groups were compared using un-paired Student t-test. […]"}, "[3]": {"tested_on": "human brain organoids", "assay": "TLX agonist activity in human brain organoids (RNA expression of NSC and immature neuron genes)", "type": "cell-based", "settings": "25 μM for 3 days, organoids at 68 days; compared to controls; FIG. 13", "description": "Human induced pluripotent cells (iPSCs) were used to generate brain organoids using a modified Pasca protocol as previously described. See, Manganas, et al. (Sci Rep […], 11: 5546) and Pasca, et al. (Nat. Methods 2015, 12: 671-678), which are incorporated herein by reference. Within 2 months, the protocol produces organoids with a variety of cell types that mimic early human brain (neural stem cells, progenitors, different types of neurons at different maturation stage, astrocytes, oligodendrocytes). About 300 organoids can be generated per batch and thus the model provides for testing of different experimental paradigms in the same batch. Organoids were treated at 68-days with 25 μM of reference compound 29, test compounds 95 and […]), or vehicle (0.03N HCl) for 3 days, after which they were processed to examine the expression of NSC genes (PAX6, BLBP) and immature neuron genes (PROM1, DCX)."}}, "data": [{"smiles": "CC(C)CCNc1ncccc1C(=O)N1CCN(Cc2ccccc2)C[C@H]1C", "note": "[Compound 3, (R)-(4-benzyl-2-methylpiperazin-1-yl)(2-(isopentylamino)pyridin-3-yl)methanone]", "values": [{"measurement": "Normalized fold increase at 200 μM", "setting": "[1]", "value": 2.49, "unit": "X"}, {"measurement": "EC50", "setting": "[1]", "value": 0.0281, "unit": "nM"}, {"measurement": "Average ALPHA signal at 200 μM (std. dev.)", "setting": "[1]", "value": "2.49 (0.12)"}, {"measurement": "cell proliferation of neural stem and progenitor cells in the adult hippocampal neurogenic niche", "setting": "[2]", "value": "increase in cell proliferation"}]}, {"smiles": "CC(C)CCNc1ncccc1C(=O)N1CCN(Cc2ccccc2)C[C@H]1Cc1ccccc1", "note": "[Compound 95]", "values": [{"measurement": "Average ALPHA signal at 200 μM (std. dev.)", "setting": "[1]", "value": "2.37 (0.19)"}, {"measurement": "expression of NSC genes (PAX6, BLBP) and immature neuron genes (PROM1, DCX)", "setting": "[3]", "value": "substantially increased the expression levels of tested genes"}]}, {"smiles": "CC(C)CCNc1ncccc1C(=O)N1CCN(Cc2ccccc2)C[C@@H]1C", "note": "[Compound 4, (S)-(4-benzyl-2-methylpiperazin-1-yl)(2-(isopentylamino)pyridin-3-yl)methanone]", "values": [{"measurement": "Normalized fold increase at 200 μM", "setting": "[1]", "value": 2.29, "unit": "X"}, {"measurement": "EC50", "setting": "[1]", "value": 0.0298, "unit": "nM"}, {"measurement": "Average ALPHA signal at 200 μM (std. dev.)", "setting": "[1]", "value": "2.29 (0.09)"}, {"measurement": "cell proliferation of neural stem and progenitor cells in the adult hippocampal neurogenic niche", "setting": "[2]", "value": "increase in cell proliferation"}]}, {"smiles": "CC(C)CCNc1ncccc1C(=O)N1CCN(Cc2ccccc2)[C@H](C)C1", "note": "[Compound 1, (R)-(4-benzyl-3-methylpiperazin-1-yl)(2-(isopentylamino)pyridin-3-yl)methanone]", "values": [{"measurement": "Normalized fold increase at 200 μM", "setting": "[1]", "value": 1.97, "unit": "X"}, {"measurement": "EC50", "setting": "[1]", "value": 0.0853, "unit": "nM"}, {"measurement": "Average ALPHA signal at 200 μM (std. dev.)", "setting": "[1]", "value": "1.97 (0.07)"}, {"measurement": "cell proliferation of neural stem and progenitor cells in the adult hippocampal neurogenic niche", "setting": "[2]", "value": "increase in cell proliferation"}]}, {"smiles": "CC(C)CCNc1ncccc1C(=O)N1CCN(Cc2ccccc2)C[C@@H]1Cc1ccccc1", "note": "[Compound 96]", "values": [{"measurement": "EC50", "setting": "[1]", "value": 0.00315, "unit": "nM"}, {"measurement": "Average ALPHA signal at 200 μM (std. dev.)", "setting": "[1]", "value": "2.41 (0.07)"}, {"measurement": "expression of NSC genes (PAX6, BLBP) and immature neuron genes (PROM1, DCX)", "setting": "[3]", "value": "substantially increased the expression levels of tested genes"}]}, {"smiles": "CC(C)CCNc1ncccc1C(=O)N1CCN(Cc2ccccc2)CC1", "note": "[Compound 29, (4-benzylpiperazin-1-yl)(2-(isopentylamino)pyridin-3-yl)methanone, reference compound]", "values": [{"measurement": "EC50", "setting": "[1]", "value": 0.0361, "unit": "nM"}, {"measurement": "Average ALPHA signal at 200 μM (std. dev.)", "setting": "[1]", "value": "2.52 (0.09)"}, {"measurement": "expression of NSC genes (PAX6, BLBP) and immature neuron genes (PROM1, DCX)", "setting": "[3]", "value": "did not lead to a substantial difference in gene expression"}]}, {"smiles": "CCCCN1CCN(C(=O)c2cccnc2NCCC(C)C)[C@H](C)C1", "note": "[Compound 49]", "values": [{"measurement": "EC50", "setting": "[1]", "value": 0.0332, "unit": "nM"}, {"measurement": "Average ALPHA signal at 200 μM (std. dev.)", "setting": "[1]", "value": "3.09 (0.12)"}]}, {"smiles": "Cc1cccc(CN2CCN(C(=O)c3cccnc3NCCC(C)C)[C@@H](C)C2)c1", "note": "[Compound 32]", "values": [{"measurement": "EC50", "setting": "[1]", "value": 0.0143, "unit": "nM"}, {"measurement": "Average ALPHA signal at 200 μM (std. dev.)", "setting": "[1]", "value": "3.85 (0.09)"}]}, {"smiles": "CC(C)CCNc1ncccc1C(=O)N1CCN(Cc2ccccc2)[C@@H](C)C1", "note": "[Compound 2, (S)-(4-benzyl-3-methylpiperazin-1-yl)(2-(isopentylamino)pyridin-3-yl)methanone]", "values": [{"measurement": "Normalized fold increase at 200 μM", "setting": "[1]", "value": 2.45, "unit": "X"}, {"measurement": "EC50", "setting": "[1]", "value": 0.0637, "unit": "nM"}, {"measurement": "Average ALPHA signal at 200 μM (std. dev.)", "setting": "[1]", "value": "2.45 (0.05)"}, {"measurement": "cell proliferation of neural stem and progenitor cells in the adult hippocampal neurogenic niche", "setting": "[2]", "value": "increase in cell proliferation"}]}, {"smiles": "CC(C)CCNc1ncccc1C(=O)N1CCN(Cc2ccccc2)C[C@H]1CC(C)C", "note": "[Compound 93]", "values": [{"measurement": "Average ALPHA signal at 200 μM (std. dev.)", "setting": "[1]", "value": "3.46 (0.10)"}]}, {"smiles": "CC(C)CCNc1ncccc1C(=O)N1CCN(Cc2ccccc2)[C@@H](C)[C@H]1CC(=O)O", "note": "[Compound 77]", "values": [{"measurement": "Average ALPHA signal at 200 μM (std. dev.)", "setting": "[1]", "value": "1.09 (0.06)"}]}]}
